Results taken from publication PMC10223164, “Exploration of the Transglycosylation Activity of Barley Limit Dextrinase for Production of Novel Glycoconjugates” (Molecules, 2023).

Biological target: T1, HvLD (barley limit dextrinase) (Hordeum vulgare, UniProt Q9FYY0)
T1 sequence (Q9FYY0 1-905 limits assumed): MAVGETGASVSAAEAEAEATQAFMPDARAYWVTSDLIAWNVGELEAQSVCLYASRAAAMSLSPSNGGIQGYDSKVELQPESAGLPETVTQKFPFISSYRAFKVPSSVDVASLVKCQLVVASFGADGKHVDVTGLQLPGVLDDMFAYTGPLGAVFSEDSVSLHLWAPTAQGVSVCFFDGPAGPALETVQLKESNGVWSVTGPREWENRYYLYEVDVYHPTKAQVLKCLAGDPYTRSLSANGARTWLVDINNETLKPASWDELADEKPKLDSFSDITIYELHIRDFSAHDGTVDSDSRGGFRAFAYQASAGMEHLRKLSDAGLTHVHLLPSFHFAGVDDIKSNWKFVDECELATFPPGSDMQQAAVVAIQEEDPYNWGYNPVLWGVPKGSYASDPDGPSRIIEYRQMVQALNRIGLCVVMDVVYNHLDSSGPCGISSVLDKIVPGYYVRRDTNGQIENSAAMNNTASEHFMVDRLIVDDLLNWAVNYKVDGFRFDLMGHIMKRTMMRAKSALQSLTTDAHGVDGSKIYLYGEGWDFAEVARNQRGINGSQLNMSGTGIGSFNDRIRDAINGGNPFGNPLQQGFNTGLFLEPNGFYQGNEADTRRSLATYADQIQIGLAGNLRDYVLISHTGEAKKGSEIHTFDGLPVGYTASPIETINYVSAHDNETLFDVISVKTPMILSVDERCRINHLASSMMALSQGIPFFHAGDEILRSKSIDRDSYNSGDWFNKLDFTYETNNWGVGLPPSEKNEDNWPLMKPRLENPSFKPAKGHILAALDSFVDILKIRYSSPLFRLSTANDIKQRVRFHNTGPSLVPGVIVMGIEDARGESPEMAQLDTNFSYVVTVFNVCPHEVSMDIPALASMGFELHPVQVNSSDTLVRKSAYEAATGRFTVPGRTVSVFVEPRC
Assay: LC-ESI-MS with UV quantification of transglycosylation products
Assay type: biochemical
Conditions: glycosyl donor, 10 mg/mL; acceptors pNP-sugars 8-14 mM; 20 mM sodium acetate pH 5.5; 5 mM CaCl2; 37 °C, 2 h

OC[C@H]1O[C@H](OC[C@H]2O[C@H](O[C@H]3[C@H](O)[C@@H](O)[C@@H](O[C@H]4[C@H](O)[C@@H](O)[C@@H](OC[C@H]5O[C@H](O[C@H]6[C@H](O)[C@@H](O)[C@@H](O[C@H]7[C@H](O)[C@@H](O)C(O)O[C@@H]7CO)O[C@@H]6CO)[C@H](O)[C@@H](O)[C@@H]5O)O[C@@H]4CO)O[C@@H]3CO)[C@H](O)[C@@H](O)[C@@H]2O)[C@H](O)[C@@H](O)[C@@H]1O (stereo partly drawn) [G1G3G3, 6^3-α-(6^3-α-D-glucosyl-maltotriosyl)-maltotriose]
LC-ESI-MS with UV quantification of transglycosylation products: G1G3G3 could serve as donor in HvLD TG reactions with all five pNP-sugars
